In ChEMBL document CHEMBL3244132, “Semisynthetic aminoglycoside antibacterials. 6. Synthesis of sisomicin, Antibiotic G-52, and novel 6'-substituted analogues of sisomicin from aminoglycoside 66-40C” (J Med Chem, 1978):
Calls of active or inactive are those of the source.

Assays:
Type in all cases: functional
[1] = system: Streptococcus pyogenes; experiment: Antimicrobial activity against Streptococcus pyogenes Alvarez by tube dilution method
[2] = system: Streptococcus pyogenes; experiment: Antimicrobial activity against Streptococcus pyogenes Group A Cruz by tube dilution method
[3] = system: Staphylococcus aureus; experiment: Antimicrobial activity against Staphylococcus aureus Ziegler by tube dilution method
[4] = system: Escherichia coli; experiment: Antimicrobial activity against Escherichia coli Baker 2 carrying APH(3')-I by tube dilution method
[5] = system: Bacillus subtilis; experiment: Antimicrobial activity against Bacillus subtilis ATCC 6633 by tube dilution method
[6] = system: Entamoeba histolytica; experiment: Antiprotozoal activity against Entamoeba histolytica JH
[7] = system: Providencia; experiment: Antimicrobial activity against Providencia 164 carrying AAC(2')-I by tube dilution method
[8] = system: Klebsiella pneumoniae; experiment: Antimicrobial activity against Klebsiella pneumoniae Adler 17 carrying APH(3')-I by tube dilution method
[9] = system: Providencia rettgeri; experiment: Antimicrobial activity against Providencia rettgeri Membel by tube dilution method
[10] = system: Pseudomonas aeruginosa; experiment: Antimicrobial activity against Pseudomonas aeruginosa Stone 130 carrying AAC(3) by tube dilution method
[11] = system: Salmonella typhimurium; experiment: Antimicrobial activity against Salmonella typhimurium Gr. B. by tube dilution method; conditions: Salmonella enterica subsp. enterica serovar Typhimurium
[12] = system: Streptococcus pyogenes; experiment: Antimicrobial activity against Streptococcus pyogenes 27 by tube dilution method
[13] = system: Staphylococcus aureus; experiment: Antimicrobial activity against Staphylococcus aureus 59N by tube dilution method
[14] = system: Serratia marcescens; experiment: Antimicrobial activity against Serratia marcescens Dalton by tube dilution method
[15] = system: Trichomonas vaginalis; experiment: Antiprotozoal activity against Trichomonas vaginalis after 48 hrs
[16] = system: Escherichia coli; experiment: Antimicrobial activity against Escherichia coli ATCC 10536 by tube dilution method
[17] = system: Staphylococcus aureus; experiment: Antimicrobial activity against Staphylococcus aureus Wood by tube dilution method
[18] = system: Klebsiella pneumoniae; experiment: Antimicrobial activity against Klebsiella pneumoniae Georgetown 3694 carrying APH(2'') by tube dilution method
[19] = system: Streptococcus pyogenes; experiment: Antimicrobial activity against Streptococcus pyogenes C by tube dilution method
[20] = system: Escherichia coli; experiment: Antimicrobial activity against Escherichia coli HL97/W677 carrying AAC(6') by tube dilution method
[21] = system: Proteus mirabilis; experiment: Antimicrobial activity against Proteus mirabilis Harding by tube dilution method
[22] = system: Escherichia coli; experiment: Antimicrobial activity against Escherichia coli JR88 carrying AAC(3) by tube dilution method
[23] = system: Staphylococcus aureus; experiment: Antimicrobial activity against Staphylococcus aureus 209 P by tube dilution method
[24] = system: Providencia rettgeri; experiment: Antimicrobial activity against Providencia rettgeri Anderson by tube dilution method
[25] = system: Pseudomonas aeruginosa; experiment: Antimicrobial activity against Pseudomonas aeruginosa St. M. 1395 by tube dilution method
[26] = system: Pseudomonas aeruginosa; experiment: Antimicrobial activity against Pseudomonas aeruginosa GN 315 carrying AAC(6') by tube dilution method
[27] = system: Histomonas meleagridis; experiment: Antiprotozoal activity against Histomonas meleagridis
[28] = system: Pseudomonas aeruginosa; experiment: Antimicrobial activity against Pseudomonas aeruginosa St. M. 762 by tube dilution method
[29] = system: Escherichia coli; experiment: Antimicrobial activity against Escherichia coli LA290R55 carrying ANT(2'') by tube dilution method

Measured: Activity

CN[C@@H]1[C@@H](O)[C@@H](O[C@@H]2[C@@H](O)[C@H](O[C@H]3OC(/C=N\N)=CC[C@H]3N)[C@@H](N)C[C@H]2N)OC[C@]1(C)O
inactive: all assays above

CN[C@@H]1[C@@H](O)[C@@H](O[C@@H]2[C@@H](O)[C@H](O[C@H]3OC(/C=N\OC)=CC[C@H]3N)[C@@H](N)C[C@H]2N)OC[C@]1(C)O
inactive: all assays above

CN[C@@H]1[C@@H](O)[C@@H](O[C@@H]2[C@@H](O)[C@H](O[C@H]3O[C@H](CN)[C@@H](O)[C@H](O)[C@H]3N)[C@@H](N)C[C@H]2N)OC[C@]1(C)O
inactive: [6] | [15] | [27]

CN[C@@H]1[C@@H](O)[C@@H](O[C@@H]2[C@@H](O)[C@H](O[C@H]3OC(C(C)N)CC[C@H]3N)[C@@H](N)C[C@H]2N)OC[C@]1(C)O (single isomer, unassigned)
inactive: [6] | [15] | [27]

CN[C@@H]1[C@@H](O)[C@@H](O[C@@H]2[C@@H](O)[C@H](O[C@H]3O[C@H](C(C)N)[C@@H](O)[C@H](O)[C@H]3N)[C@@H](N)C[C@H]2N)OC[C@]1(C)O (stereo not given in full)
inactive: [6] | [15] | [27]

CN[C@@H]1[C@@H](O)[C@@H](O[C@@H]2[C@@H](O)[C@H](O[C@H]3OC(CNOC)=CC[C@H]3N)[C@@H](N)C[C@H]2N)OC[C@]1(C)O
inactive: all assays above

CN[C@@H]1[C@@H](O)[C@@H](O[C@@H]2[C@@H](O)[C@H](O[C@H]3OC(/C=N/N4CCOCC4)=CC[C@H]3N)[C@@H](N)C[C@H]2N)OC[C@]1(C)O
inactive: all assays above

CN[C@@H]1[C@@H](O)[C@@H](O[C@@H]2[C@@H](O)[C@H](O[C@H]3OC(CNN)=CC[C@H]3N)[C@@H](N)C[C@H]2N)OC[C@]1(C)O
inactive: all assays above

CN[C@@H]1[C@@H](O)[C@@H](O[C@@H]2[C@@H](O)[C@H](O[C@H]3OC(/C=N\O)=CC[C@H]3N)[C@@H](N)C[C@H]2N)OC[C@]1(C)O
inactive: all assays above

CN[C@@H]1[C@@H](O)[C@@H](O[C@@H]2[C@@H](O)[C@H](O[C@H]3O[C@@H](CN)CC[C@H]3N)[C@@H](N)C[C@H]2N)OC[C@]1(C)O
inactive: [6] | [15] | [27]

CN[C@@H]1[C@@H](O)[C@@H](O[C@@H]2[C@@H](O)[C@H](O[C@H]3OC(CNN4CCOCC4)=CC[C@H]3N)[C@@H](N)C[C@H]2N)OC[C@]1(C)O
inactive: all assays above
